Measured values taken from patent US20060128773A1, “Wood preservatives and waterproofing compositions and processes” (priority 2004, published 2006).

Legend:
[1] = Leaching study of treated wood test blocks into water (Example 2); assay type: physicochemical
Description: Wood test blocks prepared in accordance with Example 1, were subjected to a leaching study.
In this leaching study the following procedure was observed. • 1. The wood test block was placed in 500 ml plastic containers with screw caps. • 2. Water was added to the container to over flowing and the container was sealed. • 3. The containers were stored at room temperature. • 4.

[2] = Leaching study of treated wood test blocks into water (Example 4); assay type: physicochemical
Description: In this example test blocks were prepared in accordance with the procedure of Example 1 and subjected a leaching study using the following procedure. • 1. The wood test blocks were placed in 500 ml plastic containers with screw caps. • 2. Water was added to the containers to over flowing and the container was sealed. • 3. The containers were stored at room temperature.
4. After two days the containers were opened and the leachate was analyzed for active quaternary compound (QAC) using a Hach DR/2400 Spectrophotometer.

[3] = test system: CANDIDA ALBICANS; settings: ATCC # 10231; lowest concentration which inhibits growth in all replicates
[4] = test system: STAPHYLOCOCCUS AUREUS; settings: ATCC # 6538; ten-minute contact time
[5] = test system: PSEUDOMONAS AERUGINOSA; settings: ATCC # 15442; ten-minute contact time
[6] = test system: ESCHERICHIA; settings: ATCC # 11229; lowest concentration which inhibits growth in all replicates
[7] = test system: PSEUDOMONAS AERUGINOSA; settings: ATCC # 15442; lowest concentration which inhibits growth in all replicates
[8] = test system: ST[…]; settings: ATCC # 6538; lowest concentration which inhibits growth in all replicates
[9] = test system: EN[…]; settings: ATCC # 13048; lowest concentration which inhibits growth in all replicates
[10] = test system: AS[…]; settings: ATCC # 16424; lowest concentration which inhibits growth in all replicates
[11] = test system: LISTERIA MONOCYTOGENES; settings: ATCC # 35152; lowest concentration which inhibits growth in all replicates
[12] = test system: SALMONELLA CHOLERAESUIS; settings: ATCC # 10708; ten-minute contact time
[13] = test system: METHICILLIAN-RESISTANT STAPHYLOCOCCUS AUREUS; settings: ATCC # 33593; lowest concentration which inhibits growth in all replicates
[14] = test system: SERRATIA MARCESANS; settings: ATCC # 13880; lowest concentration which inhibits growth in all replicates

Substance	leaching of quaternary ammonium compound relative to the ADBAS compound ([1]; Example 2, ratio of averages)	AVERAGE active quaternary compound in leachate, FINAL DATE May 8, 2004 ([1]; average of three blocks, water, room temperature, after two days)	leaching relative to the ADBAS compound ([2]; Example 4, ratio of averages)	AVERAGE active quaternary compound in leachate, FINAL DATE Sep. 5, 2004 ([2]; average of three blocks, water, room temperature, start Sep. 1, 2004)	Minimum Inhibitory Concentration (MIC) CONCENTRATION [3]	AOAC USE-DILUTION VALUES CONCENTRATION [4]	AOAC USE-DILUTION VALUES CONCENTRATION [5]	Minimum Inhibitory Concentration (MIC) CONCENTRATION [6]	Minimum Inhibitory Concentration (MIC) CONCENTRATION [7]	Minimum Inhibitory Concentration (MIC) CONCENTRATION [8]	Minimum Inhibitory Concentration (MIC) CONCENTRATION [9]	Minimum Inhibitory Concentration (MIC) CONCENTRATION [10]	Minimum Inhibitory Concentration (MIC) CONCENTRATION [11]	AOAC USE-DILUTION VALUES CONCENTRATION [12]	Minimum Inhibitory Concentration (MIC) CONCENTRATION [13]	Minimum Inhibitory Concentration (MIC) CONCENTRATION [14]
alkyl dimethyl benzyl ammonium chloride [ADBAC]	3.25 times	45.24 PPM QAC	8.1 times	480.0 PPM QAC												
alkyl dimethyl benzyl ammonium saccharinate [ADBAS]					100 PPM	600 PPM	700 PPM	10 PPM	100 PPM	1 PPM	10 PPM	10 PPM	1 PPM	600 PPM	0.5 PPM	10 PPM
